This note sets out measurements from publication PMC8620910, “Design and Synthesis of (2-oxo-1,2-Dihydroquinolin-4-yl)-1,2,3-triazole Derivatives via Click Reaction: Potential Apoptotic Antiproliferative Agents” (Molecules, 2021).

The test system of data set [1] is A-549, MCF-7, Panc-1 and HT-29 cell lines. As to the kind of experiment: Average anti-proliferative IC50 over the four cancer cell lines. In kind it is cell-based, human. Particulars: for IC50: Homo sapiens, average of A-549, MCF-7, Panc-1, HT-29; for fold decrease in activity relative to 8c: from average IC50. As for the experimental part: Tested 8a–l compounds were assessed for their anti-proliferative activity against four human cancer cell lines, including the pancreatic cancer cell line (Panc-1), breast cancer cell line (MCF-7), colon cancer cell line (HT-29), and epithelial cancer cell line (A-549) using propidium iodide fluorescence assay and the reference doxorubicin.
(§1) To explore the anti-proliferative potential of compounds, propidium iodide fluorescence assay was performed using different cell lines such as Panc-1 (pancreas cancer cell line), MCF-7 (breast cancer cell line), HT-29 (colon cancer cell line), and A-549 (epithelial cancer cell line), respectively. To calculate the total nuclear DNA, a fluorescent dye (propidium iodide, PI) is used to attach to the DNA, thus offering a quick and precise technique. PI cannot pass through the cell membrane, and its signal intensity can be considered as directly proportional to the quantity of cellular DNA. Cells whose cell membranes are damaged or have changed permeability are counted as dead ones. The assay was performed by seeding the cells of different cell lines at a density of 3000–7500 cells/well (in 200 μL medium) in culture plates followed by incubation for 24 h at 37 °C in humidified 5%CO2/95% air atmospheric conditions. The medium was removed; the compounds were added to the plates at 10 μM concentrations (in 0.1% DMSO) in triplicates, followed by incubation for 48h. DMSO (0.1%) was used as a control. After incubation, the medium was removed, followed by the addition of PI (25 μL, 50 μg/mL in water/medium) to each well of the plates. At −80 °C, the plates were allowed to freeze for 24 h, followed by thawing at 25 °C. A fluorometer (Polar-Star BMG Tech, Beijing, China) was used to record the readings at excitation and emission wavelengths of 530 and 620 nm for each well. The percentage cytotoxicity of compounds was calculated using the following formula: % Cytotoxicity=AC−ATC/AC×100 where ATC = absorbance of treated cells and AC = absorbance of control. Doxorubicin was used as a positive control in the assay.

For data set [2], the system named is epithelial cancer cell line (A-549). Nature of the data set: Anti-proliferative propidium iodide fluorescence assay, A-549. In kind it is cell-based. Particulars: Homo sapiens, A549; read-out: Anti-Proliferative Activity IC50 ± SEM, A-549. On the procedure: (§2) Tested 8a–l compounds were assessed for their anti-proliferative activity against four human cancer cell lines, including the pancreatic cancer cell line (Panc-1), breast cancer cell line (MCF-7), colon cancer cell line (HT-29), and epithelial cancer cell line (A-549) using propidium iodide fluorescence assay and the reference doxorubicin. Results (IC50) are illustrated in Table 3.
as §1

Data set [3] concerns colon cancer cell line (HT-29). As to the kind of experiment: Anti-proliferative propidium iodide fluorescence assay, HT-29. The format is cell-based. Particulars: Homo sapiens, read-out: Anti-Proliferative Activity IC50 ± SEM, HT-29. On the procedure: as §2, §1
Data set [4] has as its system breast cancer cell line (MCF-7). Nature of the data set: Anti-proliferative propidium iodide fluorescence assay, MCF-7. The format is cell-based. Particulars: Homo sapiens, MCF7; read-out: Anti-Proliferative Activity IC50 ± SEM, MCF-7. On the procedure:
as §2, §1

The subject of a further data set is active Caspase 3. As to the kind of experiment: Caspase 3 activation assay in MCF-7.
Data set [5] relates to pancreatic cancer cell line (Panc-1). As to the kind of experiment: Anti-proliferative propidium iodide fluorescence assay, Panc-1. In kind it is cell-based. Particulars: Homo sapiens, read-out: Anti-Proliferative Activity IC50 ± SEM, Panc-1. As for the experimental part:
as §2, §1

Data set [6] is described as follows: Cell viability assay (MTT) on MCF-10A. The format is cell-based. Particulars: human, MCF-10A mammary epithelial cells, four days. On the procedure:
A human mammary gland epithelial cell line was used in the cell viability assay (MCF-10A). MCF-10A cells were incubated with compounds 8a–l for four days, and cell viability was determined using an MTT assay.
An MTT assay was performed to investigate the effect of the synthesized compounds on mammary epithelial cells (MCF-10A) at a concentration of 50 µM for the tested compound. The cells were propagated in a medium consisting of Ham’s F-12 medium/Dulbecco’s modified Eagle’s medium (DMEM) (1:1) supplemented with 10% fetal calf serum, 2 mM glutamine, insulin (10 μg/mL), hydrocortisone (500 ng/mL), and epidermal growth factor (20 ng/mL). Trypsin ethylenediamine tetra acetic acid (EDTA) was used to pass the cells every 2–3 days. Ninety-six-well flat-bottomed cell culture plates were used to seed the cells at a density of 10^4 cells mL^−1. The medium was aspirated from all the wells of culture plates after 24 h followed by the addition of synthesized compounds (in 200 μL medium to yield a final concentration of 0.1% (v/v) dimethylsulfoxide) into individual wells of the plates. Four wells were designated to a single compound. The plates were allowed to incubate at 37 °C for 96 h. Afterward, the medium was aspirated, and 3-[4,5-dimethylthiazol-2-yl]-2,5-diphenyltetrazolium bromide (MTT) (0.4 mg/mL) in the medium was added to each well and subsequently incubated for 3 h. The medium was aspirated, and 150 μL dimethyl sulfoxide (DMSO) was added to each well. The plates were vortexed, followed by the measurement of absorbance at 540 nm on a microplate reader. The results were presented as inhibition (%) of proliferation compared to controls comprising 0.1% DMSO.

Method for active Caspase 3: All reagents were allowed to reach room temperature before use. All liquid reagents were gently mixed before use. The number of 8-well strips needed for the assay was determined. These were inserted into the frame(s) for current use. A total of 100 μL of the Standard Diluent Buffer was added to the zero standard wells. Well(s) reserved for chromogen blank were left empty. A total of 100 μL of standards and controls or diluted samples was added to the appropriate microtiter wells. The sample dilution chosen was optimized for each experimental system. The side of the plate was gently tapped on to mix. Wells were covered with a plate cover and incubated for 2 h at room temperature. […]
The working dilution was prepared as described in Preparing IgG HRP. […] The incubation time for chromogen substrate was determined by the microtiter plate reader used.
Many plate readers have the capacity to record a maximum optical density (O.D.) of 2.0. The O.D. values were monitored, and the substrate reaction was stopped before the O.D. of the positive wells exceeds the limits of the instrument. The O.D. values at 450 nm could only be read after the Stop Solution had been added to each well. […] The absorbance of each well was read at 450 nm, having blanked the plate reader against a chromogen blank composed of 100 μL each of Stabilized Chromogen and Stop Solution. […]

With `COc1ccc2[nH]c(=O)c(C(c3ccc(OCc4cn(-c5cc(=O)[nH]c6ccc(C)cc56)nn4)cc3)c3c(O)c4cc(OC)ccc4[nH]c3=O)c(O)c2c1` [Compound 8f, 3,3’-((4-((1-(6-Methyl-2-oxo-1,2-dihydroquinolin-4-yl)-1H-1,2,3-triazol-4-yl)methoxy)phenyl)methylene)bis(4-hydroxy-6-methoxyquinolin-2(1H)-one)], the 50% inhibitory concentration (IC50) – broadly, the concentration at which inhibition is half-maximal – in data set [1] came out at 3 µM; in data set [2], 2.9 ± 0.5 µM; in data set [3], 3.4 ± 0.2 µM; in data set [4] it was 2.6 ± 0.8 µM; in data set [5], 3.1 ± 0.2 µM. Further, in the data set with active Caspase 3 (MCF-7), the “Caspase 3 Conc” value was determined as 365.60 ± 3.20 pg/mL. In addition, the “Caspase 3 Fold Change” value in the data set on active Caspase 3 (MCF-7, versus untreated control) was found to be 5.57 fold. The viability (commonly a read-out of living cells in per cent, often relative to untreated cells) at 96 h, 50 µM in data set [6] worked out at 87%.

In the case of `Cc1ccc2[nH]c(=O)cc(-n3cc(COc4ccc(C(c5c(O)c6ccccc6n(C)c5=O)c5c(O)c6ccccc6n(C)c5=O)cc4)nn3)c2c1` [Compound 8j, 3,3’-((4-((1-(6-Methyl-2-oxo-1,2-dihydroquinolin-4-yl)-1H-1,2,3-triazol-4-yl)methoxy)phenyl)methylene)bis(4-hydroxy-1-methylquinolin-2(1H)-one)], the IC50 in data set [1] was found to be 22.5 µM; in data set [2] it was 22.5 ± 0.2 µM; in data set [3], 22.9 ± 0.6 µM; in data set [4], 22.1 ± 0.1 µM; in data set [5], 22.4 ± 0.2 µM. Besides, the viability at 96 h, 50 µM in data set [6] worked out at 81%.

As for `COc1ccc2[nH]c(=O)cc(-n3cc(COc4ccc(C(c5c(O)c6ccccc6[nH]c5=O)c5c(O)c6ccccc6[nH]c5=O)cc4)nn3)c2c1` [Compound 8c, 3,3’-((4-((1-(6-Methoxy-2-oxo-1,2-dihydroquinolin-4-yl)-1H-1,2,3-triazol-4-yl)methoxy)phenyl)methylene)bis(4-hydroxyquinolin-2(1H)-one)], the IC50 in data set [1] worked out at 3.85 µM; in data set [2], 3.9 ± 0.5 µM; in data set [3] it was 4.2 ± 0.2 µM; in data set [4] it was 3.2 ± 0.08 µM; in data set [5] it was 4.1 ± 0.2 µM. In data set [6], the viability at 96 h, 50 µM amounted to 91%.

Consider `O=c1cc(-n2cc(COc3ccc(C(c4c(O)c5ccccc5[nH]c4=O)c4c(O)c5ccccc5[nH]c4=O)cc3)nn2)c2ccccc2[nH]1` [Compound 8a, 3,3’-((4-((1-(2-oxo-1,2-dihydroquinolin-4-yl)-1H-1,2,3-triazol-4-yl)methoxy)phenyl)-methylene)bis(4-hydroxyquinolin-2(1H)-one)], for which the IC50 in data set [1] was found to be 5.58 µM; in data set [2], 5.7 ± 0.4 µM; in data set [3], 5.7 ± 0.4 µM; in data set [4], 5.3 ± 0.8 µM; in data set [5] it was 5.6 ± 0.6 µM. Besides, in data set [1], the “fold decrease in activity relative to 8c” value is on record as 1.5 fold. In addition, the viability at 96 h, 50 µM in data set [6] worked out at 89%.

In the case of `Cc1ccc2[nH]c(=O)cc(-n3cc(COc4ccc(C(c5c(O)c6ccccc6[nH]c5=O)c5c(O)c6ccccc6[nH]c5=O)cc4)nn3)c2c1` [Compound 8b, 3,3’-((4-((1-(6-Methyl-2-oxo-1,2-dihydroquinolin-4-yl)-1H-1,2,3-triazol-4-yl)methoxy)phenyl)methylene)bis(4-hydroxyquinolin-2(1H)-one)], the IC50 in data set [1] came out at 7.4 µM; in data set [2] it was 7.6 ± 0.8 µM; in data set [3] it was 7.5 ± 0.4 µM; in data set [4], 6.9 ± 0.8 µM; in data set [5], 7.6 ± 0.6 µM. The “fold decrease in activity relative to 8c” value in data set [1] is listed as 2 fold. For the same molecule, in data set [6], the viability at 96 h, 50 µM was 87%.

As for `COc1ccc2[nH]c(=O)cc(-n3cc(COc4ccc(C(c5c(O)c6ccccc6n(C)c5=O)c5c(O)c6ccccc6n(C)c5=O)cc4)nn3)c2c1` [Compound 8k], the IC50 in data set [1] amounted to 14.4 µM; in data set [2] it was 14.5 ± 2.6 µM; in data set [3], 14.8 ± 1.4 µM; in data set [4], 13.6 ± 2.2 µM; in data set [5], 14.6 ± 2.9 µM. Besides, the viability at 96 h, 50 µM in data set [6] came to 90%.

As for `COc1ccc2[nH]c(=O)c(C(c3ccc(OCc4cn(-c5cc(=O)n(C)c6ccccc56)nn4)cc3)c3c(O)c4cc(OC)ccc4[nH]c3=O)c(O)c2c1` [Compound 8h, 3,3’-((4-((1-(1-Methly-2-oxo-1,2-dihydroquinolin-4-yl)-1H-1,2,3-triazol-4-yl)methoxy)phenyl)methylene)bis(4-hydroxy-6-methoxyquinolin-2(1H)-one)], the IC50 turned out to be 10.7 µM in data set [1]; 10.7 ± 2.5 µM in data set [2]; 10.8 ± 1.6 µM in data set [3]; 10.6 ± 2.9 µM in data set [4]; 10.8 ± 1.9 µM in data set [5]. In addition, the viability at 96 h, 50 µM in data set [6] was found to be 90%.

`Cn1c(=O)cc(-n2cc(COc3ccc(C(c4c(O)c5ccccc5[nH]c4=O)c4c(O)c5ccccc5[nH]c4=O)cc3)nn2)c2ccccc21` [Compound 8d, 3,3’-((4-((1-(1-Methly-2-oxo-1,2-dihydroquinolin-4-yl)-1H-1,2,3-triazol-4-yl)methoxy)phenyl)methylene)bis(4-hydroxyquinolin-2(1H)-one)]: the IC50 in data set [1] amounted to 11.8 µM; in data set [2], 12.9 ± 0.8 µM; in data set [3], 11.4 ± 1.2 µM; in data set [4] it was 11.5 ± 1.1 µM; in data set [5] it was 11.6 ± 0.8 µM. Also, in data set [6], the viability at 96 h, 50 µM was found to be 89%.

Take `Cn1c(=O)cc(-n2cc(COc3ccc(C(c4c(O)c5ccccc5n(C)c4=O)c4c(O)c5ccccc5n(C)c4=O)cc3)nn2)c2ccccc21` [Compound 8l, 3,3’-((4-((1-(1-Methyl-2-oxo-1,2-dihydroquinolin-4-yl)-1H-1,2,3-triazol-4-yl)methoxy)phenyl)methylene)bis(4-hydroxy-1-methylquinolin-2(1H)-one)]: the IC50 in data set [1] stood at 24.7 µM; in data set [2] it was 25.3 ± 2.5 µM; in data set [3], 24.2 ± 1.4 µM; in data set [4], 24.9 ± 1.8 µM; in data set [5] it was 24.5 ± 2.3 µM. In addition, in data set [1] (replacement of NH by N-CH3), the “fold reduction of the average IC50 value relative to 8a” value was “at least 4 fold”. Moreover, the viability at 96 h, 50 µM in data set [6] stood at 96%.

`Cn1c(=O)c(C(c2ccc(OCc3cn(-c4cc(=O)[nH]c5ccccc45)nn3)cc2)c2c(O)c3ccccc3n(C)c2=O)c(O)c2ccccc21` [Compound 8i, 3,3’-((4-((1-(2-oxo-1,2-dihydroquinolin-4-yl)-1H-1,2,3-triazol-4-yl)methoxy)phenyl)-methylene)bis(4-hydroxy-1-methylquinolin-2(1H)-one)]: the IC50 is 17.8 µM in data set [1]; 17.9 ± 0.3 µM in data set [2]; 17.9 ± 1.1 µM in data set [3]; 17.8 ± 1.6 µM in data set [4]; 17.6 ± 1.5 µM in data set [5]. In data set [6], this molecule returned a viability at 96 h, 50 µM of 90%.
